Source: ChEMBL document CHEMBL1142755, “A macromolecular prodrug of doxorubicin conjugated to a biodegradable cyclotriphosphazene bearing a tetrapeptide” (2005)
Structures can show the parent of a compound that is named as a salt.

Test system: L1210
Experiment: In vitro cytotoxicity against Leukemia L1210 cell line
Assay type: functional
Conditions: Mus musculus

Compound	EC50 (read-out: ED50 (the source's name)) [nM]	ED50 [nM]
COc1cccc2c1C(=O)c1c(O)c3c(c(O)c1C2=O)C[C@@](O)(C(=O)CO)C[C@@H]3O[C@H]1C[C@H](N)[C@H](O)[C@H](C)O1 [DOXORUBICIN HYDROCHLORIDE]	100	–
CISPLATIN	–	1000
